Laboratory results taken from patent US8088761B2, “Enzyme inhibitors” (Cancer Research Technology Limited, priority 2005, dated 2012).

How the values were obtained:
[1] = target: T1, Aurora-A (Homo sapiens, UniProt O14965); test: Flashplate Aurora A enzyme inhibition assay; format: biochemical; conditions: Flashplate assay; IC50 range; read-out: Aurora-A inhibition
T1 sequence (O14965 1-403): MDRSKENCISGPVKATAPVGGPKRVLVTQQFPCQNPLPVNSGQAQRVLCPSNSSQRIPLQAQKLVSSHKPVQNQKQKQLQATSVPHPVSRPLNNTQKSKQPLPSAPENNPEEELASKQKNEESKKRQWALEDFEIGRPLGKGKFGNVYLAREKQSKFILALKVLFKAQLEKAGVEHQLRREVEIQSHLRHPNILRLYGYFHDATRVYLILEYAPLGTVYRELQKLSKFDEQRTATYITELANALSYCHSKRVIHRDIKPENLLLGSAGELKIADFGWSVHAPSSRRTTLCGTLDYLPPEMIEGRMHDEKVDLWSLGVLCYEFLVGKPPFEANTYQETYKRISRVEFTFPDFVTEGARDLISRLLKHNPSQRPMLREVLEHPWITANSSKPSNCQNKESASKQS
Method in brief: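 This is a radiometric Flashplate format: plates were precoated with DTT, and compound (in 2% DMSO) was mixed with kinase buffer (pH 7.5 Tris, MgCl2, NaCl) containing 1 mM MBP, 20 μM ATP and ^33P-ATP. The reaction was started with 250 ng Aurora-A per well and incubated 2 h at RT. It was then stopped by 10 mM sodium pyrophosphate washing, and plates were scintillation-counted.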

[2] = test system: HCT116 cells; test: Cell viability assay (MTT) in HCT116 cell line; format: cell-based; conditions: Homo sapiens, HCT-116, 72 hrs, IC50 range, read-out: HCT116 cell growth inhibition
Method in brief: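 MTT read-out (4 hrs, 37 °C, DMSO extraction) following 72 hrs of treatment with 0-50 μM Aurora inhibitor. HCT116 cells were plated a day earlier and tested in triplicate; IC50 derived from the curve.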

**Q.** How did the IC50 [1] turn out when `Clc1cnc2[nH]c(-c3ccc(CN4CCOCC4)cc3)nc2c1N1CCN(Cc2cccnc2)CC1` [Example 79, 6-Chloro-2-(4-morpholin-4-ylmethyl-phenyl)-7-(4-pyridin-3-ylmethyl-piperazin-1-yl)-3H-imidazo[4,5-b]pyridine] was run?
**A.** The IC50 was less than 500 nM.

**Q.** What about the IC50 [2] of the same compound?
**A.** The IC50 was less than 500 nM.

**Q.** With `CN1CCN(c2ccc(-c3nc4c(N5CCN(Cc6cccnc6)CC5)c(Br)cnc4[nH]3)cc2)CC1` [Example 101, 6-Bromo-2-(4-(4-methylpiperazin-1-yl)phenyl)-7-(4-(pyridin-3-ylmethyl)piperazin-1-yl)-3H-imidazo[4,5-b]pyridine] as the compound, how does the IC50 [1] read?
**A.** The IC50 was less than 500 nM.

**Q.** And the IC50 [2]?
**A.** Its IC50 is 500 to 2000 nM.

**Q.** How did the IC50 [1] turn out when `Cc1nn(C)c(C)c1-c1nc2c(N3CCN(Cc4cccnc4)CC3)c(Br)cnc2[nH]1` [Example 57, 6-Bromo-7-(4-(pyridin-3-ylmethyl)piperazin-1-yl)-2-(1,3,5-trimethyl-1H-pyrazol-4-yl)-3H-imidazo[4,5-b]pyridine] was run?
**A.** Its IC50 is less than 500 nM.

**Q.** What about the IC50 [2] of the same compound?
**A.** Its IC50 is 2000 to 50000 nM.

**Q.** Which IC50 [1] does the source give for `Cc1nc(CN2CCN(c3c(Cl)cnc4[nH]c(-c5ccc(CN6CCOCC6)cc5)nc34)CC2)cs1` [Example 172, 4-(4-(6-Chloro-7-(4-((2-methylthiazol-4-yl)methyl)piperazin-1-yl)-3H-imidazo[4,5-b]pyridin-2-yl)benzyl)morpholine] here?
**A.** Its IC50 is less than 500 nM.

**Q.** And the IC50 [2]?
**A.** Its IC50 is 500 to 2000 nM.

**Q.** `NCc1ccc(-c2nc3c(N4CCN(CC(=O)Nc5nccs5)CC4)c(Br)cnc3[nH]2)cc1` [Example 7, 2-{4-[2-(4-Aminomethyl-phenyl)-6-bromo-3H-imidazo[4,5-b]pyridin-7-yl]-piperazin-1-yl}-N-thiazol-2-yl-acetamide] was tested. Which IC50 [1] did it give?
**A.** The IC50 was less than 500 nM.

**Q.** What about the IC50 [2] of the same compound?
**A.** Its IC50 is 500 to 2000 nM.

**Q.** How did the IC50 [1] turn out when `CN(C)c1ccc(-c2nc3c(N4CCN(CC(=O)N5CCCC5)CC4)c(Br)cnc3[nH]2)cc1` [Example 25, 2-(4-(6-Bromo-2-(4-(dimethylamino)phenyl)-3H-imidazo[4,5-b]pyridin-7-yl)piperazin-1-yl)-1-(pyrrolidin-1-yl)ethanone] was run?
**A.** The IC50 was less than 500 nM.

**Q.** What about the IC50 [2] of the same compound?
**A.** The IC50 was 2000 to 50000 nM.

**Q.** Which IC50 [1] does the source give for `O=C(CN1CCN(c2c(Cl)cnc3[nH]c(-c4ccc(N5CCS(=O)(=O)CC5)cc4)nc23)CC1)Nc1nccs1` [Example 187, 2-(4-(6-Chloro-2-(4-(1,1-dioxothiomorpholino)phenyl)-3H-imidazo[4,5-b]pyridin-7-yl)piperazin-1-yl)-N-(thiazol-2-yl)acetamide] here?
**A.** Its IC50 is less than 500 nM.

**Q.** What about the IC50 [2] of the same compound?
**A.** The IC50 was 500 to 2000 nM.

**Q.** For `CC(c1ccccc1)N1CCN(c2c(Br)cnc3[nH]c(-c4ccc(CN5CCOCC5)cc4)nc23)CC1` (centres unmarked) [Example 70, 6-Bromo-2-(4-morpholin-4-ylmethyl-phenyl)-7-[4-(1-phenyl-ethyl)-piperazin-1-yl]-3H-imidazo[4,5-b]pyridine], which IC50 [1] is on record?
**A.** Its IC50 is less than 500 nM.

**Q.** And the IC50 [2]?
**A.** Its IC50 is 500 to 2000 nM.

**Q.** Which IC50 [1] does the source give for `O=C(CN1CCN(c2c(Cl)cnc3[nH]c(-c4ccc5c(c4)OCCO5)nc23)CC1)Nc1nccs1` [Example 87, 2-{4-[6-Chloro-2-(2,3-dihydro-benzo[1,4]dioxin-6-yl)-3H-imidazo[4,5-b]pyridin-7-yl]-piperazin-1-yl}-N-thiazol-2-yl-acetamide] here?
**A.** The IC50 was less than 500 nM.

**Q.** What about the IC50 [2] of the same compound?
**A.** Its IC50 is 500 to 2000 nM.

**Q.** How did the IC50 [1] turn out when `Clc1cnc2[nH]c(-c3ccc(N4CCNCC4)cc3)nc2c1N1CCN(Cc2cccnc2)CC1` [Example 137, 6-Chloro-2-(4-(piperazin-1-yl)phenyl)-7-(4-(pyridin-3-ylmethyl)piperazin-1-yl)-3H-imidazo[4,5-b]pyridine] was run?
**A.** The IC50 was less than 500 nM.

**Q.** What about the IC50 [2] of the same compound?
**A.** The IC50 was 500 to 2000 nM.

**Q.** With `CC(c1ccncc1)N1CCN(c2c(Br)cnc3[nH]c(-c4ccc(CN5CCOCC5)cc4)nc23)CC1` (centres unmarked) [Example 129, 4-(4-(6-Bromo-7-(4-(1-(pyridin-4-yl)ethyl)piperazin-1-yl)-3H-imidazo[4,5-b]pyridin-2-yl)benzyl)morpholine] as the compound, how does the IC50 [1] read?
**A.** Its IC50 is less than 500 nM.

**Q.** What about the IC50 [2] of the same compound?
**A.** The IC50 was less than 500 nM.

**Q.** With `CN(C)c1ccc(-c2nc3c(N4CCN(CC(=O)Nc5ccccc5)CC4)c(Br)cnc3[nH]2)cc1` [Example 20, 2-(4-(6-Bromo-2-(4-(dimethylamino)phenyl)-3H-imidazo[4,5-b]pyridin-7-yl)piperazin-1-yl)-N-phenylacetamide] as the compound, how does the IC50 [1] read?
**A.** The IC50 was less than 500 nM.

**Q.** And the IC50 [2]?
**A.** The IC50 was 500 to 2000 nM.

**Q.** For `CN1CCN(c2ccc(-c3nc4c(N5CCN(Cc6ccc(Cl)cc6)CC5)c(Br)cnc4[nH]3)cc2)CC1` [Example 86, 6-Bromo-7-[4-(4-chloro-benzyl)-piperazin-1-yl]-2-[4-(4-methyl-piperazin-1-yl)-phenyl]-3H-imidazo[4,5-b]pyridine], which IC50 [1] is on record?
**A.** The IC50 was less than 500 nM.

**Q.** What about the IC50 [2] of the same compound?
**A.** The IC50 was less than 500 nM.

**Q.** With `CN(C)CCOc1ccc(-c2nc3c(N4CCN(CC(=O)Nc5nccs5)CC4)c(Cl)cnc3[nH]2)cc1` [Example 186, 2-(4-(6-Chloro-2-(4-(2-(dimethylamino)ethoxy)phenyl)-3H-imidazo[4,5-b]pyridin-7-yl)piperazin-1-yl)-N-(thiazol-2-yl)acetamide] as the compound, how does the IC50 [1] read?
**A.** Its IC50 is less than 500 nM.

**Q.** And the IC50 [2]?
**A.** Its IC50 is less than 500 nM.

**Q.** Which IC50 [1] does the source give for `O=C(CN1CCN(c2c(Cl)cnc3[nH]c(-c4cccc(OCCN5CCOCC5)c4)nc23)CC1)Nc1nccs1` [Example 185, 2-(4-(6-Chloro-2-(3-(2-morpholinoethoxy)phenyl)-3H-imidazo[4,5-b]pyridin-7-yl)piperazin-1-yl)-N-(thiazol-2-yl)acetamide] here?
**A.** The IC50 was less than 500 nM.

**Q.** What about the IC50 [2] of the same compound?
**A.** The IC50 was less than 500 nM.

**Q.** How did the IC50 [1] turn out when `Brc1cnc2[nH]c(-c3ccc(Cn4ccnc4)cc3)nc2c1N1CCN(Cc2cccnc2)CC1` [Example 110, 2-(4-((1H-Imidazol-1-yl)methyl)phenyl)-6-bromo-7-(4-(pyridin-3-ylmethyl)piperazin-1-yl)-3H-imidazo[4,5-b]pyridine] was run?
**A.** Its IC50 is less than 500 nM.

**Q.** And the IC50 [2]?
**A.** The IC50 was 500 to 2000 nM.

**Q.** For `Clc1cnc2[nH]c(-c3ccc(CN4CCOCC4)cc3)nc2c1N1CCN(Cc2cscn2)CC1` [Example 177, 4-(4-(6-Chloro-7-(4-(thiazol-4-ylmethyl)piperazin-1-yl)-3H-imidazo[4,5-b]pyridin-2-yl)benzyl)morpholine], which IC50 [1] is on record?
**A.** Its IC50 is less than 500 nM.

**Q.** What about the IC50 [2] of the same compound?
**A.** Its IC50 is 500 to 2000 nM.

**Q.** Which results are given for `COc1ccc(-c2nc3c(N4CCN(Cc5cn(C)cn5)CC4)c(Br)cnc3[nH]2)cc1` [Example 168, 6-Bromo-2-(4-methoxyphenyl)-7-(4-((1-methyl-1H-imidazol-4-yl)methyl)piperazin-1-yl)-3H-imidazo[4,5-b]pyridine]?
**A.** IC50 [1]: < 500 nM; IC50 [2]: 2000 to 50000 nM

**Q.** How did the IC50 [1] turn out when `CC(c1ccncc1)N1CCN(c2c(Br)cnc3[nH]c(-c4ccc(N5CCOCC5)cc4)nc23)CC1` (centres unmarked) [Example 130, 4-(4-(6-Bromo-7-(4-(1-(pyridin-4-yl)ethyl)piperazin-1-yl)-3H-imidazo[4,5-b]pyridin-2-yl)phenyl)morpholine] was run?
**A.** Its IC50 is less than 500 nM.

**Q.** And the IC50 [2]?
**A.** Its IC50 is 500 to 2000 nM.
